From patent EP0456418B1, “Treatment of clostridium difficile diarrhoea and pseudomembranous colitis” (KABUSHIKI KAISHA MIYARISAN SEIBUTSU IGAKU KENKYUSHO, priority 1990, dated 1991)
Entries after “also recorded” stand apart in the source; their conditions may differ.

Test system: Clostridium difficile
Assay: Recurring Clostridium difficile diarrhoea model induced by CFT in golden hamsters
Format: in vivo
[1] = B group: six + 14 doses of VCM, 48 hours after termination of vancomycin

CN[C@H](CC(C)C)C(=O)N[C@H]1C(=O)N[C@@H](CC(N)=O)C(=O)N[C@H]2C(=O)N[C@H]3C(=O)N[C@H](C(=O)N[C@H](C(=O)O)c4cc(O)cc(O)c4-c4cc3ccc4O)[C@H](O)c3ccc(c(Cl)c3)Oc3cc2cc(c3O[C@@H]2O[C@H](CO)[C@@H](O)[C@H](O)[C@H]2O[C@H]2C[C@](C)(N)[C@H](O)[C@H](C)O2)Oc2ccc(cc2Cl)[C@H]1O [vancomycin]
faecal state compared with A group [1]: improvement in the faecal state
ratio of Clostridium difficile detection [1]: one out of five
faecal state (six doses of vancomycin): discernible improvement in the faecal state
culture of Clostridium difficile from faeces (six doses of vancomycin (3 days administration), detection limit 400CFu/g faeces): not so effective as to show negative culture; also recorded: positive culture
culture of Clostridium difficile (vancomycin continued for a total of 10 days): negative culture
